Laboratory results: PubChem BioAssay AID1918955 (Molecular Pharmacology Branch, DTP, NCI, 2023)
Several values for one entry are separate records, joined by “and”; a condition that tells them apart may be missing. Identical values can stand only once.

Tested on: NCI/ADR-RES complex spheroid viability
Test: Anticancer human tumor NCI/ADR-RES cell line growth inhibition;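 also: spheroids exposed to compounds for 7 days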;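 as to viability, T/C: 100% = DMSO vehicle treated spheroids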
Conditions: for viability, T/C: stronger effect = lower value
Excerpt: Multicellular complex tumor spheroid response to LSD1 Inhibitor Iadademstat in combination with a variety of drugs and investigational agents in selected tumor cell lines
The current study was undertaken to assess response to LSD1 inhibitors in combination with standard-of-care drugs and investigational agents in solid tumor complex spheroid models as well as in the K-562 leukemia. Complex spheroids include a stromal component modeled by human endothelial cells (HUVEC) and fibroblasts modeled by human mesenchymal stem cells (MSCs). The concentration ranges selected for each drug and investigational agent were based upon clinically achievable concentrations if the clinical Cmax of the agent was known.
Compounds. The drugs and investigational agents used in this study are listed on Table 1. All of the agents used, including staurosporine (NSC755774) and gemcitabine (NSC613327), were obtained from the Developmental Therapeutics Program, NCI. FDA-approved anticancer drugs are available from the NCI at http://dtp.nci.nih.gov/branches/dscb/oncology_drugset_explanation.html. Drugs and investigational agents were >95% pure by proton nuclear magnetic resonance (NMR) and liquid chromatography/mass spectrometry (LC/MS). Stock solutions were prepared at 400x in DMSO, stored at -70 degrees C, and diluted in fresh medium prior to their use. The final concentration of DMSO in cell culture wells never exceeded 0.25% (v/v). The FDA-approved anticancer drug set is available from the Developmental Therapeutics Program at https://dtp.cancer.gov/organization/dscb/obtaining/available_plates.htm. All drugs and investigational agents were tested over a range starting from a high concentration at or near the clinical Cmax and decreasing in half-log increments. If the clinical Cmax for an agent had not been determined, the highest concentration tested was 10 microM.
Cell Lines. The patient-derived cancer cell (PDC) lines: 292921-168-R-J2-PDC, K24384-001-R-PDC, and 521955-158-R2-J5-PDC pancreatic carcinomas, 556581-035-R-J1 ovarian carcinoma, 324938-238-R-J1-PDC, 855422-203-R-J1-PDC and 883617-216-R-J1-PDC urothelial bladder carcinomas, 743489-274-T-PDC renal cell carcinoma, 138582-R-J1 Merkel cell tumor, K60290-347-R-J1 and K57222-313-R-J1-PDC glioblastomas, 653999-131-R-J2-PDC, LG0703-F948-PDC, and 349418-098-R-PDC non-small cell lung carcinomas, 885512-296-R-J2-PDC, 171881-019-R-J1-PDC breast carcinomas and 186277-243-T-J2-PDC and 233499-124-R-J2-PDC colon carcinomas were obtained from the NCI Patient-Derived Models Repository (PDMR, https://pdmr.cancer.gov). The established cell lines NCI/ADR-RES (RRID:CVCL_14520 and OVCAR-5 (RRID:CVCL_1628) ovarian carcinomas, 786-O (RRID:CVCL_1051) and A498 (RRID:CVCL_A498) renal cell carcinoma, NCI-H211 (ATCC, cat. CRL-5824; RRID:CVCL_1529), NCI-H196 (ATCC, cat. CRL-5823, RRID:CVCL_1509), SW 1271 (ATCC, cat. CRL-2177, RRID:CVCL_1716) and NCI-H1876 (ATCC, cat. CRL-5902, RRID:CVCL_1503) small cell lung carcinomas, MDA-MB-231 (RRID:CVCL_0062) and MDA-MB-468 (RRID:CVCL_0419)breast carcinomas (10-12). Pooled donor human umbilical vein endothelial cells (HUVEC, Lonza, cat. CC-2519) and human mesenchymal stem cells (hMSC, Lonza, cat. PT-2501) were purchased from Lonza (Walkersville, MD).
Cell Culture. All cells were maintained in an incubator at 37 degrees C and 5% CO2 with 95% humidity. The PDC lines were cultured according to standard operating procedures established by the NCI PDMR (https://pdmr.cancer.gov). Briefly all PDCs were thawed and cultured in Matrigel-coated flasks prepared with a working solution of 1X Ham's F-12 nutrient mix, without supplementation (Invitrogen, Waltham, MA, cat. 11765054), 100 U/mL penicillin-streptomycin (Invitrogen, cat. 15140122), and 2.5% Matrigel (Corning Inc., Corning, NY, cat. 354248) for the first three passages. […]

[1] = curve of first compound, second compound 0.1 µM
[2] = curve of first compound, second compound 0.316 µM
[3] = curve of first compound, second compound 1 µM
[4] = curve of first compound, second compound 3.16 µM
[5] = curve of first compound, second compound 10 µM

CC(C)c1c(-c2ccccc2)nc2c(C#N)c[nH]n2c1=O
viability, T/C (compound 0.0316 µM): 103% and 102%
viability, T/C (compound 0.1 µM): 99.6% and 94.7%
viability, T/C (compound 0.316 µM): 96.5% and 96.3%
viability, T/C (compound 1 µM): 104%
viability, T/C (compound 3.16 µM): 98.6% and 93.1%
viability, T/C (compound 10 µM): 94.6% and 96.8%
IC50 (curve of compound): > 10000 nM

CC1COCCN1c1cc(-c2ccnn2C)c2ccnc(-c3ccn[nH]3)c2n1 (configuration not stated) + NC1CCC(NC2CC2c2ccccc2)CC1
IC50 [1]: 15.5 nM
IC50 [2]: 16.3 nM
IC50 [3]: 16.5 nM
IC50 [4]: 13.8 nM
IC50 [5]: 7.44 nM
viability, T/C (second compound 0.1 µM, first compound 0.00316 µM): 99.8%
viability, T/C (second compound 0.1 µM, first compound 0.01 µM): 70.3%
viability, T/C (second compound 0.1 µM, first compound 0.0316 µM): 17.4%
viability, T/C (second compound 0.1 µM, first compound 0.1 µM): 4.62%
viability, T/C (second compound 0.1 µM, first compound 0.316 µM): 5.9%
viability, T/C (second compound 0.1 µM, first compound 1 µM): 8.55%
viability, T/C (second compound 0.316 µM, first compound 0.00316 µM): 101%
viability, T/C (second compound 0.316 µM, first compound 0.01 µM): 74.4%
viability, T/C (second compound 0.316 µM, first compound 0.0316 µM): 16.8%
viability, T/C (second compound 0.316 µM, first compound 0.1 µM): 2.98%
viability, T/C (second compound 0.316 µM, first compound 0.316 µM): 2.91%
viability, T/C (second compound 0.316 µM, first compound 1 µM): 2.82%
viability, T/C (second compound 1 µM, first compound 0.00316 µM): 102%
viability, T/C (second compound 1 µM, first compound 0.01 µM): 74.6%
viability, T/C (second compound 1 µM, first compound 0.0316 µM): 18.8%
viability, T/C (second compound 1 µM, first compound 0.1 µM): 3.17%
viability, T/C (second compound 1 µM, first compound 0.316 µM): 7.14%
viability, T/C (second compound 1 µM, first compound 1 µM): 10.6%
viability, T/C (second compound 3.16 µM, first compound 0.00316 µM): 92.1%
viability, T/C (second compound 3.16 µM, first compound 0.01 µM): 65.6%
viability, T/C (second compound 3.16 µM, first compound 0.0316 µM): 10.3%
viability, T/C (second compound 3.16 µM, first compound 0.1 µM): 2.4%
viability, T/C (second compound 3.16 µM, first compound 0.316 µM): 6%
viability, T/C (second compound 3.16 µM, first compound 1 µM): 2.76%
viability, T/C (second compound 10 µM, first compound 0.00316 µM): 83.9%
viability, T/C (second compound 10 µM, first compound 0.01 µM): 38.2%
viability, T/C (second compound 10 µM, first compound 0.0316 µM): 11.9%
viability, T/C (second compound 10 µM, first compound 0.1 µM): 2.97%
viability, T/C (second compound 10 µM, first compound 0.316 µM): 1.89%
viability, T/C (second compound 10 µM, first compound 1 µM): 2.07%

CCc1c2c(nc3ccc(O)cc13)-c1cc3c(c(=O)n1C2)COC(=O)[C@]3(O)CC + NC1CC1c1ccc(-c2cccc(O)c2)cc1
IC50 [1]: < 0.949 nM
IC50 [2]: < 0.949 nM
IC50 [3]: < 0.949 nM
IC50 [4]: < 0.949 nM
IC50 [5]: < 0.949 nM
viability, T/C (second compound 0.1 µM, first compound 0.000949 µM): 3.8%
viability, T/C (second compound 0.1 µM, first compound 0.003 µM): 1.6%
viability, T/C (second compound 0.1 µM, first compound 0.00949 µM): 0.64%
viability, T/C (second compound 0.1 µM, first compound 0.03 µM): 0.32%
viability, T/C (second compound 0.1 µM, first compound 0.0949 µM): 0.23%
viability, T/C (second compound 0.1 µM, first compound 0.3 µM): 0.59%
viability, T/C (second compound 0.316 µM, first compound 0.000949 µM): 3.44%
viability, T/C (second compound 0.316 µM, first compound 0.003 µM): 1.85%
viability, T/C (second compound 0.316 µM, first compound 0.00949 µM): 0.73%
viability, T/C (second compound 0.316 µM, first compound 0.03 µM): 0.21%
viability, T/C (second compound 0.316 µM, first compound 0.0949 µM): 0.3%
viability, T/C (second compound 0.316 µM, first compound 0.3 µM): 0.38%
viability, T/C (second compound 1 µM, first compound 0.000949 µM): 4.73%
viability, T/C (second compound 1 µM, first compound 0.003 µM): 3.11%
viability, T/C (second compound 1 µM, first compound 0.00949 µM): 0.96%
viability, T/C (second compound 1 µM, first compound 0.03 µM): 0.37%
viability, T/C (second compound 1 µM, first compound 0.0949 µM): 0.24%
viability, T/C (second compound 1 µM, first compound 0.3 µM): 0.51%
viability, T/C (second compound 3.16 µM, first compound 0.000949 µM): 8.34%
viability, T/C (second compound 3.16 µM, first compound 0.003 µM): 2.9%
viability, T/C (second compound 3.16 µM, first compound 0.00949 µM): 1.29%
viability, T/C (second compound 3.16 µM, first compound 0.03 µM): 0.29%
viability, T/C (second compound 3.16 µM, first compound 0.0949 µM): 0.18%
viability, T/C (second compound 3.16 µM, first compound 0.3 µM): 0.31%
viability, T/C (second compound 10 µM, first compound 0.000949 µM): 20.9%
viability, T/C (second compound 10 µM, first compound 0.003 µM): 3.67%
viability, T/C (second compound 10 µM, first compound 0.00949 µM): 1.58%
viability, T/C (second compound 10 µM, first compound 0.03 µM): 0.59%
viability, T/C (second compound 10 µM, first compound 0.0949 µM): 0.26%
viability, T/C (second compound 10 µM, first compound 0.3 µM): 0.3%
